These results are taken from paper PMC12584836, “Rubus caesius leaves and stems in antiaging skin care products: antityrosinase, anticollagenase, antimicrobial activity, and transdermal distribution of main phenolic acids” (Pharmaceutical Biology, 2025).

Marks after values point to notes of the source that are not given here.

Series [1] in a line: Skin permeation from hydrogels in Franz diffusion cells. It is filed as in vitro ADME. To be noted: porcine skin. As for the experimental part:
Permeation experiments were conducted using Franz diffusion cells (Phoenix DB-6, ABL&E-JASCO, Wien, Austria), with a donor chamber area of 1 cm^2 and 10 mL acceptor chamber filled with phosphate-buffered saline (PBS, pH 7.4). The system was maintained at 37.0 ± 0.5 °C, and the acceptor solutions were continuously stirred.
Skin samples were wrapped in aluminum foil, frozen at −20 °C for no longer than three months. […] Skin impedance was measured by immersing the probe tips in the donor and acceptor chambers filled with PBS.
One gram of each hydrogel was applied to the donor chamber. All chambers were sealed with plastic stoppers to minimize evaporation. […] Phenolic acid concentrations were determined by HPLC.
J-shaped profiles and the following equations were used: (1) A=JSS(t−LT) where A is the cumulative amount permeated (μg·cm^−2) of tested phenolic acids permeating into the receptor compartment; JSS is the steady-state flux (μg·cm^−2·h^−1); t is the time (h), and LT is the lag time (h).
The steady-state flux was estimated from the slope of the linear portion of the plot of cumulative mass in the acceptor phase over time. The lag time (LT) was determined from the x-intercept of the linear portion of the plot of cumulative mass in the acceptor phase over time and was used to calculate the […] (KP) as follows: (2) KP=JSS/C where C is the concentration in the donor phase.

Series [2] is described as follows: Skin accumulation after 24 h permeation. It is filed as in vitro ADME. To be noted: after 24-h penetration; HL-E application; porcine skin. As for the experimental part: Following incubation, samples were homogenized (IKA®T18 digital ULTRA TURRAX, Germany) for 3 min and centrifuged at 3500 rpm for 5 min. The resulting supernatants were analyzed by HPLC spectrophotometry, with methanol used as a blank. Accumulated phenolic acids were expressed as amount (µg) per gram of skin tissue (µg·g skin^−1).

The target in series [3] is Collagenase from Clostridium histolyticum. Description: Collagenase inhibition assay (FALGPA substrate). The class given is biochemical. As for the experimental part: Preparation of the extracts and calculation of IC50 values were carried out as described in the Antioxidant tests section. The effect of Rubus caesius extracts on collagenase and tyrosinase activity was estimated using the spectrophotometric method in a 96-well microplate reader (Epoch, BioTek System, Winooski, VT, USA).
The addition of the substrate started the reaction. Changes in absorbance were monitored every 20 s for a total of 20 min. The blank sample contained buffer, substrate, and the appropriate concentration of extract or standard. The negative control sample contained water instead of extract or standard. All tests were performed in triplicate and repeated three times (n = 9).
The effect of Rubus caesius extracts on collagenase activity was assessed based on the method described by Thring et al. ([2009]), with modifications introduced by Hering et al. ([2023]). FALGPA was used as the substrate, and oleanolic acid served as the positive control. Reaction mixtures containing the extract (0–400 µg/mL) were pre-incubated for 15 min. The reaction was initiated by the addition of 0.8 mM FALGPA, and absorbance was continuously measured at 335 nm. The reaction buffer was composed of tricine (50 mM, pH 7.5) with 400 mM NaCl and 10 mM CaCl2.

Series [4] is described as follows: ABTS radical scavenging assay. The class given is biochemical. As for the experimental part: (§1) Water and ethanol extracts from Rubus caesius leaves and stems were freshly prepared by dissolving the dry extract in water. The samples were tested at concentrations ranging from 1 to 1000 µg/mL. Ascorbic acid was used as the reference standard in both assays. All measurements were performed using a 96-well microplate reader (Epoch, BioTek System, Winooski, VT, USA). IC50 values for each extract were calculated using the GraphPad Prism 9 software (version 9.0.0, GraphPad Software, San Diego, CA, USA). Each test was performed in triplicate and repeated three times (n = 9).
The antioxidant activity of the Rubus caesius extracts was determined using ABTS radical scavenging method as described by Thring et al. ([2009]), with minor modifications according to Hering et al. ([2025]). The reaction mixture containing extracts or standard were incubated in the dark for 20 min at 30 °C. After incubation, absorbance was measured at 750 nm. The negative control sample consisted of the reaction mixture and water instead of extract or standard.

A short description of series [5]: Molybdenum reduction (phosphomolybdenum) assay. It is filed as biochemical. As for the experimental part: as §1
The total reducing power of water and ethanol extracts from Rubus caesius was estimated according to the phosphomolybdenum method described by Prieto et al. ([1999]), with modifications by Hering et al. ([2025]). The samples (extract or standard) were mixed with the reagent solution and incubated at 90 °C for 90 min. After cooling, 250 µL of each reaction mixture was transferred to a 96-well microplate reader (Epoch, BioTek System, Winooski, VT, USA), and absorbance was measured at 700 nm. The negative control consisted of the reaction mixture and water.

Take `O=C(O)c1cc(O)c(O)c(O)c1` [Gallic acid, gallic acid]: the “Phenolic acids concentration in the acceptor fluid (cumulative mass)” value (“Phenolic acids concentration” for short) is on record as 3.64 ± 0.12^a µg/cm^2 in series [1] (from hydrogel HL-E, 1 h); 4.54 ± 0.47^a µg/cm^2 in series [1] (from hydrogel HL-E, 2 h); 6.18 ± 0.35^a µg/cm^2 in series [1] (from hydrogel HL-E, 3 h); 10.24 ± 0.97^a µg/cm^2 in series [1] (from hydrogel HL-E, 5 h); 16.09 ± 1.19^a µg/cm^2 in series [1] (from hydrogel HL-E, 8 h); 49.62 ± 2.18^a µg/cm^2 in series [1] (from hydrogel HL-E, 24 h). In addition, the “Phenolic acids concentration” value in series [1] (from hydrogel HL-E, 24 h, listed as gallic acid) was 49.62 ± 2.18 µg/cm^2; in series [1] (from hydrogel HS-E, 5 h) it was 3.95 ± 0.18^b µg/cm^2; in series [1] (from hydrogel HS-E, 8 h) it was 4.69 ± 0.19^b µg/cm^2; in series [1] (from hydrogel HS-E, 24 h) it was 7.19 ± 0.47^b µg/cm^2. The “D·10^4, diffusion coefficient” value stood at 25.73 ± 1.64 cm^2/h in series [1] (from hydrogel HL-E) and 2.01 ± 0.09 cm^2/h in series [1] (from hydrogel HS-E). For the same molecule, the entries for the “JSS, steady-state flux” value in series [1] (from hydrogel HL-E) and in series [1] (from hydrogel HS-E) were 2.08 ± 0.08 µg/cm^2·h and 0.88 ± 0.04 µg/cm^2·h, respectively. The “LT, lag time” value was 0.16 ± 0.02 h in series [1] (from hydrogel HL-E) and 2.08 ± 0.09 h in series [1] (from hydrogel HS-E). Also, the “Q%24h, percentage of applied dose in acceptor phase after 24 h” value (“Q%24h, percentage of applied dose” for short) in series [1] (from hydrogel HL-E) is given as 5.78 ± 0.25%; in series [1] (from hydrogel HL-E, listed as gallic acid), 5.78%; in series [1] (from hydrogel HS-E) it was 4.78 ± 0.35%. Also, the “Accumulation of phenolic acid in the skin” value in series [2] came to 70.62 ± 4.06 µg/g skin.
As for `O=C(O)c1ccc(O)c(O)c1` [Protocatechuic acid, protocatechuic acid], the “Phenolic acids concentration” value in series [1] (from hydrogel HL-E, 2 h) was 3.28 ± 0.31^a µg/cm^2; in series [1] (from hydrogel HL-E, 3 h) it was 5.86 ± 0.28^a µg/cm^2; in series [1] (from hydrogel HL-E, 5 h), 8.59 ± 0.65^a µg/cm^2; in series [1] (from hydrogel HL-E, 8 h), 11.94 ± 1.91^a µg/cm^2; in series [1] (from hydrogel HL-E, 24 h), 37.95 ± 2.96^a µg/cm^2; in series [1] (from hydrogel HL-E, 24 h, listed as protocatechuic acid) it was 37.95 ± 2.96 µg/cm^2. Besides, the “Phenolic acids concentration” value in series [1] (from hydrogel HS-E, 5 h) is listed as 3.04 ± 0.03^a µg/cm^2; in series [1] (from hydrogel HS-E, 8 h), 3.84 ± 0.18^b µg/cm^2; in series [1] (from hydrogel HS-E, 24 h), 4.57 ± 0.30^b µg/cm^2. The “D·10^4, diffusion coefficient” value in series [1] (from hydrogel HL-E) was 6.57 ± 0.77 cm^2/h; in series [1] (from hydrogel HS-E), 1.91 ± 0.09 cm^2/h. Further, the “JSS, steady-state flux” value in series [1] (from hydrogel HL-E) stood at 2.10 ± 0.17 µg/cm^2·h; in series [1] (from hydrogel HS-E) it was 0.73 ± 0.04 µg/cm^2·h. Besides, the “LT, lag time” value in series [1] (from hydrogel HL-E) is 0.63 ± 0.08 h; in series [1] (from hydrogel HS-E) it was 2.19 ± 0.10 h. The “Q%24h, percentage of applied dose” value is 4.49 ± 0.35% in series [1] (from hydrogel HL-E); 4.49% in series [1] (from hydrogel HL-E, listed as protocatechuic acid); 2.45 ± 0.16% in series [1] (from hydrogel HS-E). For the same molecule, the “Accumulation of phenolic acid in the skin” value in series [2] is reported as 61.46 ± 12.57 µg/g skin.
Turning to `CC1(C)CC[C@]2(C(=O)O)CC[C@]3(C)C(=CC[C@@H]4[C@@]5(C)CC[C@H](O)C(C)(C)[C@@H]5CC[C@]43C)[C@@H]2C1` [oleanolic acid], the “IC50 of collagenase inhibition” value in series [3] was found to be 31.72 ± 0.65 µg/mL.
In the case of `O=C(O)/C=C/c1ccc(O)c(O)c1` [Caffeic acid, caffeic acid], the “Phenolic acids concentration” value is 2.58 ± 0.20^a µg/cm^2 in series [1] (from hydrogel HL-E, 3 h); 2.84 ± 0.07^a µg/cm^2 in series [1] (from hydrogel HL-E, 5 h); 3.30 ± 0.13^a µg/cm^2 in series [1] (from hydrogel HL-E, 8 h); 7.83 ± 0.83^a µg/cm^2 in series [1] (from hydrogel HL-E, 24 h); “not permeating at all” in series [1] (from hydrogel HS-E, 24 h). In addition, in series [1] (from hydrogel HL-E), the “D·10^4, diffusion coefficient” value is 3.41 ± 0.28 cm^2/h. For the same molecule, in series [1] (from hydrogel HL-E), the “JSS, steady-state flux” value was determined as 0.84 ± 0.02 µg/cm^2·h. Besides, the “LT, lag time” value in series [1] (from hydrogel HL-E) was 1.22 ± 0.09 h. Also, the “Q%24h, percentage of applied dose” value in series [1] (from hydrogel HL-E) amounted to 0.68 ± 0.07%.
For the molecule `O=C1O[C@H]([C@@H](O)CO)C(O)=C1O` [Ascorbic acid, ascorbic acid], the “ABTS radical scavenging IC50” value in series [4] was 14.77 ± 0.5 µg/mL. The “Molybdenum reduction IC50” value in series [5] is reported as 78.25 ± 1.25 µg/mL.
As to `COc1cc(C(=O)O)ccc1O` [Vanillic acid, vanillic acid], the “Phenolic acids concentration” value in series [1] (from hydrogel HL-E, 3 h) is 0.49 ± 0.25^a µg/cm^2; in series [1] (from hydrogel HL-E, 5 h), 1.76 ± 0.82^a µg/cm^2; in series [1] (from hydrogel HL-E, 8 h) it was 3.92 ± 1.06^a µg/cm^2; in series [1] (from hydrogel HL-E, 24 h), 15.61 ± 2.42^a µg/cm^2; in series [1] (from hydrogel HS-E, 24 h) it was 0.95 ± 0.15^b µg/cm^2. Moreover, the “D·10^4, diffusion coefficient” value in series [1] (from hydrogel HL-E) was found to be 2.68 ± 0.19 cm^2/h. Also, the “JSS, steady-state flux” value in series [1] (from hydrogel HL-E) was determined as 0.54 ± 0.03 µg/cm^2·h. For the same molecule, the “LT, lag time” value in series [1] (from hydrogel HL-E) is listed as 1.55 ± 0.13 h. The “Q%24h, percentage of applied dose” value is 4.77 ± 0.29% in series [1] (from hydrogel HL-E); 4.77% in series [1] (from hydrogel HL-E, listed as vanillic acid); 3.28 ± 0.52% in series [1] (from hydrogel HS-E).
As for `O=C(O)/C=C/c1ccc(O)cc1` [Coumaric acid, coumaric acid], the “Phenolic acids concentration” value in series [1] (from hydrogel HL-E, 3 h) is listed as 4.97 ± 0.09^a µg/cm^2; in series [1] (from hydrogel HL-E, 5 h) it was 7.04 ± 0.75^a µg/cm^2; in series [1] (from hydrogel HL-E, 8 h), 8.95 ± 1.00^a µg/cm^2; in series [1] (from hydrogel HL-E, 24 h), 12.45 ± 0.26^a µg/cm^2; in series [1] (from hydrogel HS-E, 8 h), 5.10 ± 0.11^b µg/cm^2; in series [1] (from hydrogel HS-E, 24 h) it was 5.93 ± 0.08^b µg/cm^2. Moreover, the “D·10^4, diffusion coefficient” value in series [1] (from hydrogel HL-E) was found to be 9.27 ± 0.73 cm^2/h. The “JSS, steady-state flux” value in series [1] (from hydrogel HL-E) is 1.35 ± 0.17 µg/cm^2·h. In addition, the “Q%24h, percentage of applied dose” value was 2.62 ± 0.05% in series [1] (from hydrogel HL-E) and 5.37 ± 0.07% in series [1] (from hydrogel HS-E).
